Results on 14 molecules are retold here after ChEMBL document CHEMBL2021888, “Discovery of Novel α4β2 Neuronal Nicotinic Receptor Modulators through Structure-Based Virtual Screening” (ACS Med Chem Lett, 2011).

Assay [1] concerns the target T1, Neuronal acetylcholine receptor; alpha4/beta2 (Homo sapiens, UniProt P17787+P43681). Description: Antagonist activity at human alpha4beta2 nAChR expressed in HEK tsA201 cells assessed as inhibition of epibatidine-induced intracellular calcium accumulation at 50 uM after 1 hr by fluorescence assay relative to control. To be noted: HEK293, values are per cent of control. The format is functional, cell-based. For orientation: Calcium assays in cells follow changes in intracellular calcium, usually with a dye or a luminescent sensor.

The target in assay [2] is T1, Neuronal acetylcholine receptor; alpha4/beta2. Description: Antagonist activity at human alpha4beta2 nAChR expressed in HEK tsA201 cells assessed as inhibition of epibatidine-induced intracellular calcium accumulation after 1 hr by fluorescence assay. The format is functional, cell-based, HEK293.
Assay [3] addresses Neuronal acetylcholine receptor; alpha3/beta4 (Homo sapiens, UniProt P30926+P32297). Description: Antagonist activity at human alpha3beta4 nAChR expressed in HEK tsA201 cells assessed as inhibition of epibatidine-induced intracellular calcium accumulation after 1 hr by fluorescence assay. The format is functional, cell-based, HEK293.

By IC50 is commonly meant the concentration that gives 50% inhibition.

T1 sequence (P17787 whole entry): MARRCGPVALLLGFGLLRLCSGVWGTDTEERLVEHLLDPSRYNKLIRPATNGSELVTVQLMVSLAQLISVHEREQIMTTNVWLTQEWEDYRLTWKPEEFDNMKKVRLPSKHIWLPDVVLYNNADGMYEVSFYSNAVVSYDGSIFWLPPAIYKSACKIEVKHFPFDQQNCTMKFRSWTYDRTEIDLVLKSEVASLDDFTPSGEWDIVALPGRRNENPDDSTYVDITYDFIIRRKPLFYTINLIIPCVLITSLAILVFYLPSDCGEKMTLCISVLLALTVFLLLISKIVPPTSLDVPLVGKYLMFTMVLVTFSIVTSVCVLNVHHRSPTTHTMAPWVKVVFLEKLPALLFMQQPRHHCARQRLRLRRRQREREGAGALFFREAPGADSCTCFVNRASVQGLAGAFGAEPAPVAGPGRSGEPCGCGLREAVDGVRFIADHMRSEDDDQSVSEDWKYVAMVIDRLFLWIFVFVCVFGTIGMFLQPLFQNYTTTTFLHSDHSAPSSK
T1 sequence (P43681 whole entry): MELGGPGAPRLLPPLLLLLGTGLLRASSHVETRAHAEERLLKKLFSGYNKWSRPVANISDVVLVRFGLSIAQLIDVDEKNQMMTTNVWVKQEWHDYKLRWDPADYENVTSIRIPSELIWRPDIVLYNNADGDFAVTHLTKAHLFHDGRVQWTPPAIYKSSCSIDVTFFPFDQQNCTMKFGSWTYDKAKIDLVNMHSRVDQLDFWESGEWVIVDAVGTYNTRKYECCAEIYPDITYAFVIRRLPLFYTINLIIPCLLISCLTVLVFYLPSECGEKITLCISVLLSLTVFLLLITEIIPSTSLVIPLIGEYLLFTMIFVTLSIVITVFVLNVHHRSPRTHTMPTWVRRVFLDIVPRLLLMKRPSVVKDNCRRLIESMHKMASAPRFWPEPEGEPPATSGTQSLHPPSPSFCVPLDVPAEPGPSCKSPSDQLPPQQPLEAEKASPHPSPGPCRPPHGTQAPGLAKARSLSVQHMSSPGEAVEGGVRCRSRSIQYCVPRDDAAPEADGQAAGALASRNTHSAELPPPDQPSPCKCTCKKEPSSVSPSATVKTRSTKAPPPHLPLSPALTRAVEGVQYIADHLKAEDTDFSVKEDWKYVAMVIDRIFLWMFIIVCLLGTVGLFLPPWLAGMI
Chain of Neuronal acetylcholine receptor; alpha3/beta4 (P30926 whole entry): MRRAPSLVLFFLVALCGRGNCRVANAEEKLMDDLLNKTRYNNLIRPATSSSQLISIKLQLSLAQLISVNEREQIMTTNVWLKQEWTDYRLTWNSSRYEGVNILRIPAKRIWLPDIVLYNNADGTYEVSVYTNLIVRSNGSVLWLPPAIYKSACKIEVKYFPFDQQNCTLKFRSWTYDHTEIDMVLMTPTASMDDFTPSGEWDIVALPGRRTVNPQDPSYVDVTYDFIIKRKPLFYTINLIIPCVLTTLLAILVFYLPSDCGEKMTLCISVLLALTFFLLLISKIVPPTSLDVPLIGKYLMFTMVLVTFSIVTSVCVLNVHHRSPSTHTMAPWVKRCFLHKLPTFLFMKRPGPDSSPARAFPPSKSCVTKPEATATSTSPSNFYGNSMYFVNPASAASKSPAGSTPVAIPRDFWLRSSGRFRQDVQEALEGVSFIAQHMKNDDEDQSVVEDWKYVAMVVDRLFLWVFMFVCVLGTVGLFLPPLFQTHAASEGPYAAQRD
Chain of Neuronal acetylcholine receptor; alpha3/beta4 (P32297 whole entry): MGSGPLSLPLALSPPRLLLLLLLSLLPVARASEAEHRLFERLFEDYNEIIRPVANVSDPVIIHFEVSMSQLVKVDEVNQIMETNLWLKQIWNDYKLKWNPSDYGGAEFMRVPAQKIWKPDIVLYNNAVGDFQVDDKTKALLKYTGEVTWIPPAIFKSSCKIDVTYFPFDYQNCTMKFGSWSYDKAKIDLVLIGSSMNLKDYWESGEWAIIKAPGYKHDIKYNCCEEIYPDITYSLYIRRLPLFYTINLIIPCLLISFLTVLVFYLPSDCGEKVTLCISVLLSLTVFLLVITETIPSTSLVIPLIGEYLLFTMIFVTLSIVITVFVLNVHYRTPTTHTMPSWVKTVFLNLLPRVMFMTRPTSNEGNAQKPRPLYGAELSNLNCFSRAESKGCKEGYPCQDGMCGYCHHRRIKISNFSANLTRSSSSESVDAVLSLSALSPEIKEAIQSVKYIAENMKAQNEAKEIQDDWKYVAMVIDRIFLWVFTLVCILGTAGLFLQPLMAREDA

For the molecule `CC(=O)Nc1ccc2c(c1)nc(CN1CCCCC1)n2C`, the residual activity in assay [1] came out at 86.2%.

As for `O=C(CSc1nnc(-c2ccccn2)o1)Nc1cccc2ccccc12`, the residual activity in assay [1] came to 76.2%.

In the case of `O=C(CN1CCN(c2ccccc2)CC1)NCc1ccco1`, in assay [1], the residual activity came to 59.8%.

With `O=C(CN1CCN(S(=O)(=O)c2ccc(F)cc2)CC1)Nc1ccccc1F`, the residual activity in assay [1] was found to be 46.9%. Also, the figures for the IC50 in assay [2] and in assay [3] were 9.8 µM and 19.6 µM, respectively.

Regarding `COC(=O)c1ccc(N2CCN(C)CC2)c(NC(=O)Cc2ccccc2)c1`, the residual activity in assay [1] stood at 71%.

As for `Cc1cccc(C(C)C)c1NC(=O)c1ccccc1NS(C)(=O)=O`, the residual activity in assay [1] stood at 74%.

As for `O=C(O)c1cc(NCc2cccs2)ccc1N1CCOCC1`, in assay [1], the residual activity was 49.5%. The results for the IC50 in assay [2] and in assay [3] were 20.6 µM and more than 100 µM, respectively.

As to `Cc1cccc(NC(=O)c2cc(N)ccc2N2CCCCC2)n1`, the residual activity in assay [1] came to 47.7%. Further, the IC50 was 14.4 µM in assay [2] and 46.3 µM in assay [3].

For `CC(=O)N1CCN(c2ccc(NC(=O)c3cccnc3)cc2Cl)CC1`, the residual activity in assay [1] worked out at 103%.

As for `C=CCN1C(=O)[C@](O)(CC(=O)c2ccco2)c2cc(Cl)ccc21`, the residual activity in assay [1] came out at 51.1%. The results for the IC50 in assay [2] and in assay [3] were 6.1 µM and more than 100 µM, respectively.

Regarding `O=C(Nc1ccc(F)cc1)C1CC(=O)n2c(nc3ccccc32)N1` (configuration not stated), the residual activity in assay [1] was determined as 72.5%.

As to `C=C(C)CN1C(=O)C(O)(CC(=O)c2ccccn2)c2ccccc21` (configuration not stated), the residual activity in assay [1] was found to be 59.9%.

Regarding `O=C(O)CCC(=O)Nc1cc(F)ccc1F`, the residual activity in assay [1] was determined as 83.3%.

In the case of `Cn1c(=O)c2[nH]c(CN3CCc4ccccc4C3)nc2n(C)c1=O`, the residual activity in assay [1] was 83.2%.
